Results from patent publication US20240174684A1, “INHIBITORS OF cGAS ACTIVITY AS THERAPEUTIC AGENTS” (BELLBROOK LABS, LLC, priority 2021, published 2024).
Read-outs that look alike come from different tables or passages of the source.

How the values were obtained:
[1] = system: MDR1 (P-glycoprotein); experiment: MDCK-MDR1 permeability A→B; format: in vitro ADME, Canine; conditions: dog; MDCK cells expressing human MDR1, A→B; read-out: MDCK-MDR Permeability A→B
Procedure: (§1) ADME studies: Compound A and the compounds of the disclosure were tested for aqueous solubility (KSOL), metabolic stability (human and mouse […]) and permeability (Caco-2 and/or MDR1-MDCK cells) to provide an initial indication of oral bioavailability.
(§2) The favorable physicochemical properties are reflected in promising results in in vitro ADME tests. […] Metabolic stability, which was routinely measured with mouse and human hepatocytes, is outstanding, with t, greater than 2 hours for all of the compounds of the disclosure in which it has been measured. Cell permeability was measured using MDCK cells expressing human MDR1 (P-glycoprotein) to assess passive permeability as well as active transport out of the cell. […] Numerous compounds in Table 1 meet these permeability criteria, which is consistent with their design for TPSA <140 Å^2 and increased lipophilicity.
(§3) The MDCK-MDR1 permeability A ->B is shown in Table 2 below, where A represents 5-10 cm/s×10^−6; B represents 1-5 cm/s×10^−6; and C represents <1 cm/ss×10^−6. The metabolic stability half time, in both mouse and human hepatocytes, is also shown in Table 2 below, where A′ represents 100-200 minutes; B′ represents 200-300 minutes; and C′ represents >300 minutes.

[2] = system: IFNβ production in THP-1 cells; experiment: IFNβ ELISA in THP-1 cells; format: cell-based, human; conditions: Homo sapiens; THP-1 cells
Excerpt: Cellular assays: The human monocyte cell line THP-1 and human primary PBMCs were used to evaluate the cellular activity of compounds with good biochemical potency. These cells produce a robust cGAS/STING-dependent type I IFN response when stimulated with dsDNA and other pathogen-associated molecular patterns, which was detected using a standard ELISA for IFNβ (R&D Systems). The TBK1 inhibitor, BX-795, which acts downstream of cGAS/STING, was used as a probe.
CETSA was also used to confirm that the compounds are binding to cGAS in cells; THP-1 cells are used for this analysis. Compounds were tested in dose response mode by incubating with cells for 1.5 hours at 37° C., followed by pelleting and re-suspending in PBS, heating to 51.5° C. for 3 min and cooling to room temp. Cells were then lysed, debris, including denatured cGAS, was pelleted and the supernatant was analyzed for soluble cGAS by Western Blot using anti-cGAS primary Ab (Cell Signaling). Band intensity was analyzed using Image J software. Stimulation with cGAMP directly activates STING, circumventing cGAS; this was used to determine if compounds had effects on downstream components of cGAS/STING signaling. The IFN-6 ELISA was used as the primary measure of cellular potency and selectivity (Table 3) and used the reporter gene assays for assessing off-target activity with other pattern recognition receptors.
The ICso values for IFNB ELISA stimulated with THP-1, PBMC, DNA, and cGAMP were determined for several exemplary compounds of the invention, and are provided in Table 3 where A represents <1 μM; B represents 1-2.5 μM; C represents 2.5-10 μM; D represents 10-20 μM; and E represents >20 μM.

[3] = biological target: cGAS (Homo sapiens, UniProt Q8N884); experiment: Transcreener cGAS enzymatic assay (FP); format: biochemical
Procedure: Structural, biochemical and biophysical analysis and selectivity profiling: Potency and MOA studies, including Mn^2+ sensitivity, were performed using the Transcreener cGAS enzymatic assay, which is manufactured at BellBrook Labs (Fitchburg, Wisconsin, USA). This homogenous cGAS enzymatic assay was developed with fluorescence polarization (FP) and time-resolved Forster resonance energy transfer (TR-FRET) readouts, as described in International Patent Publication WO 2020/142729, incorporated by reference herein in its entirety. Plates are read on a PHERAstar FSX multimode reader (BMG). The compounds of the disclosure were tested for inhibition of cGAS ([…]) using this cGAS enzymatic assay under standard conditions (100 μM ATP and GTP, 62.5 nM bp ISD, 60 minute reactions), high ATP and GTP (1 mM) to mimic physiological conditions, in the presence of 200 μM MnCl2, and with mouse cGAS under standard conditions.
The IC50 values for FP under standard and under physiological conditions were determined for several exemplary compounds of the invention. The relative activities for FP Standard IC50 are shown in Table 2 below, where A represents <50 nM; B represents 50-100 nM; C represents 100-200 nM; D represents 200 nM-1μM; and E represents 1-10 μM. For the relative activities for FP Physiological IC50, A′ represents <200 nM; B′ represents 200-500 nM; C′ represents 500 nM-1μM; D′ represents 1-5 μM; and E′ represents >5 μM.

[4] = system: MDCK cells expressing human MDR1 (P-glycoprotein); experiment: MDCK-MDR1 permeability A→B; format: in vitro ADME, Canine
Procedure: as §1, §2, §3

[5] = high ATP and GTP (1 mM) to mimic physiological conditions, read-out: IC50 FP Physiological
[6] = standard conditions: 100 μM ATP and GTP, 62.5 nM bp ISD, 60 minute reactions, read-out: IC50 FP Standard

Sequence of cGAS (Q8N884 whole entry): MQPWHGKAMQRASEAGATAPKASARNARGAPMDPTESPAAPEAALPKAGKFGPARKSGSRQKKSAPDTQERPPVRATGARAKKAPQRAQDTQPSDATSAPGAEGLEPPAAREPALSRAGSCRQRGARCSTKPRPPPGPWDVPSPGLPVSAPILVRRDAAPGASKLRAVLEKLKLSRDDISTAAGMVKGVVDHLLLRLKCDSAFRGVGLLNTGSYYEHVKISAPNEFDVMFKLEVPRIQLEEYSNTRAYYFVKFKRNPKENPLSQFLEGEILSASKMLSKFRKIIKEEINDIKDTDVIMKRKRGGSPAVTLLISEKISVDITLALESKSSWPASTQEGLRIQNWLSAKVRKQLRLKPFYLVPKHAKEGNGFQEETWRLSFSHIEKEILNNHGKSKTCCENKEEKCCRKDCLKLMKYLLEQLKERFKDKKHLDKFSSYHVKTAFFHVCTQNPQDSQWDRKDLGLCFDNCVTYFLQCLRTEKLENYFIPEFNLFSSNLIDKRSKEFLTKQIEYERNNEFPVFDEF

| Structure (SMILES) | Papp A→B [1] | IC50 [2] | IC50 [3, 5] | IC50 [3, 6] | MDCK-MDR Permeability A→B [4] |
| --- | --- | --- | --- | --- | --- |
| Cc1ccc(NC(=O)C[C@H]2C[C@@H](C(=O)O)N(c3nc(C)nc4c3oc3ccccc34)C2)cc1 [Compound 15, (2S,4R)-1-(2-methylbenzofuro[3,2-d]pyrimidin-4-yl)-4-(2-oxo-2-(p-tolylamino)ethyl)pyrrolidine-2-carboxylic acid] | 1 to 5 ×10⁻⁶ cm/s | > 20 µM | 1000 to 5000 nM | 200 to 1000 nM |  |
| Cc1cccc(NC(=O)C[C@H]2C[C@@H](C(=O)O)N(c3nc(C)nc4c3oc3ccccc34)C2)c1 [Compound 16, (28.4R)-1-(2-methylbenzofuro[3,2-d]pyrimidin-4-yl)-4-(2-oxo-2-(m-tolylamino)ethyl)pyrrolidine-2-carboxylic acid] | 1 to 5 ×10⁻⁶ cm/s | > 20 µM | 1000 to 5000 nM | 200 to 1000 nM |  |
| Cc1nc(N2C[C@@H](CC(=O)Nc3ccc(F)cc3)C[C@H]2C(=O)O)c2oc3ccccc3c2n1 [Compound 18, (2S,4R)-4-(2-((4-fluorophenyl)amino)-2-oxoethyl)-1-(2-methylbenzofuro[3,2-d]pyrimidin-4-yl)pyrrolidine-2-carboxylic acid] |  | > 20 µM | 1000 to 5000 nM | 200 to 1000 nM | C (C represents <1 cm/ss×10^−6) |
| Cc1nc(N2C[C@@H](CC(=O)Nc3cccc(F)c3)C[C@H]2C(=O)O)c2oc3ccccc3c2n1 [Compound 19, (2S,4R)-4-(2-((3-fluorophenyl)amino)-2-oxoethyl)-1-(2-methylbenzofuro[3,2-d]pyrimidin-4-yl)pyrrolidine-2-carboxylic acid] | 1 to 5 ×10⁻⁶ cm/s | 10 to 20 µM | 1000 to 5000 nM | 200 to 1000 nM |  |
| Cc1nc(N2C[C@@H](CC(=O)Nc3ccccc3F)C[C@H]2C(=O)O)c2oc3ccccc3c2n1 [Compound 20, (2S,4R)-4-(2-((2-fluorophenyl)amino)-2-oxoethyl)-1-(2-methylbenzofuro[3,2-d]pyrimidin-4-yl)pyrrolidine-2-carboxylic acid] | 1 to 5 ×10⁻⁶ cm/s | > 20 µM | > 5000 nM | 200 to 1000 nM |  |
| Cc1nc(N2C[C@@H](CC(=O)Nc3ccc(Cl)cc3)C[C@H]2C(=O)O)c2oc3ccccc3c2n1 [Compound 21, (28.4R)-4-(2-((4-chlorophenyl)amino)-2-oxoethyl)-1-(2-methylbenzofuro[3,2-d]pyrimidin-4-yl)pyrrolidine-2-carboxylic acid] | 1 to 5 ×10⁻⁶ cm/s | 10 to 20 µM | 1000 to 5000 nM | 100 to 200 nM |  |
| Cc1nc(N2C[C@@H](CC(=O)Nc3ccccc3Cl)C[C@H]2C(=O)O)c2oc3ccccc3c2n1 [Compound 23, (28.4R)-4-(2-((2-chlorophenyl)amino)-2-oxoethyl)-1-(2-methylbenzofuro[3,2-d]pyrimidin-4-yl)pyrrolidine-2-carboxylic acid] | 1 to 5 ×10⁻⁶ cm/s | > 20 µM | > 5000 nM | 200 to 1000 nM |  |
| Cc1nc(N2C[C@@H](CC(=O)Nc3cccc(C(F)(F)F)c3)C[C@H]2C(=O)O)c2oc3ccccc3c2n1 [Compound 25, (2S,4R)-1-(2-methylbenzofuro[3,2-d]pyrimidin-4-yl)-4-(2-oxo-2-((3-(trifluoromethyl)phenyl)amino)ethyl)pyrrolidine-2-carboxylic acid] | 1 to 5 ×10⁻⁶ cm/s | 10 to 20 µM | > 5000 nM | 200 to 1000 nM |  |
| Cc1nc(N2C[C@@H](CC(=O)Nc3cccc4[nH]ncc34)C[C@H]2C(=O)O)c2oc3ccccc3c2n1 [Compound 28, (28.4R)-4-(2-((1H-indazol-4-yl)amino)-2-oxoethyl)-1-(2-methylbenzofuro[3,2-d]pyrimidin-4-yl)pyrrolidine-2-carboxylic acid] |  | > 20 µM | 1000 to 5000 nM | 200 to 1000 nM | C (C represents <1 cm/ss×10^−6) |
| Cc1nc(N2C[C@@H](CC(=O)Nc3ccc4nc[nH]c4c3)C[C@H]2C(=O)O)c2oc3ccccc3c2n1 [Compound 29, (2S,4R)-4-(2-((1H-benzo[d]imidazol-6-yl)amino)-2-oxoethyl)-1-(2-methylbenzofuro[3,2-d]pyrimidin-4-yl)pyrrolidine-2-carboxylic acid] |  | > 20 µM | 500 to 1000 nM | 100 to 200 nM | C (C represents <1 cm/ss×10^−6) |
| Cc1nc(N2C[C@@H](CC(=O)Nc3ccc4cn[nH]c4c3)C[C@H]2C(=O)O)c2oc3ccccc3c2n1 [Compound 30, (28.4R)-4-(2-((1H-indazol-6-yl)amino)-2-oxoethyl)-1-(2-methylbenzofuro[3,2-d]pyrimidin-4-yl)pyrrolidine-2-carboxylic acid] |  | > 20 µM | 1000 to 5000 nM | 100 to 200 nM | C (C represents <1 cm/ss×10^−6) |
| Cc1nc(N2C[C@@H](CC(=O)Nc3ccc(-c4cccnn4)cc3)C[C@H]2C(=O)O)c2oc3ccccc3c2n1 [Compound 44, (2S,4R)-1-(2-methylbenzofuro[3,2-d]pyrimidin-4-yl)-4-(2-oxo-2-((4-(pyridazin-3-yl)phenyl)amino)ethyl)pyrrolidine-2-carboxylic acid] |  | > 20 µM | 200 to 500 nM | < 50 nM | C (C represents <1 cm/ss×10^−6) |
| COc1cccc(-c2ccc(NC(=O)C[C@H]3C[C@@H](C(=O)O)N(c4nc(C)nc5c4oc4ccccc45)C3)cc2)c1 [Compound 50, (2S,4R)-4-(2-((3′-methoxy-[1,1′-biphenyl]-4-yl)amino)-2-oxoethyl)-1-(2-methylbenzofuro[3,2-d]pyrimidin-4-yl)pyrrolidine-2-carboxylic acid] | 5 to 10 ×10⁻⁶ cm/s | < 1 µM | 200 to 500 nM | < 50 nM |  |
| Cc1nc(N2C[C@@H](CC(=O)Nc3ccc(Cc4ccccn4)cc3)C[C@H]2C(=O)O)c2oc3ccccc3c2n1 [Compound 56, (2S,4R)-1-(2-methylbenzofuro[3,2-d]pyrimidin-4-yl)-4-(2-oxo-2-((4-(pyridin-2-ylmethyl)phenyl)amino)ethyl)pyrrolidine-2-carboxylic acid] |  | > 20 µM | 1000 to 5000 nM | 200 to 1000 nM | C (C represents <1 cm/ss×10^−6) |
| Cc1nc(N2C[C@@H](CC(=O)Nc3cccc(N4CCOCC4)c3)C[C@H]2C(=O)O)c2oc3ccccc3c2n1 [Compound 57, (2S,4R)-1-(2-methylbenzofuro[3,2-d]pyrimidin-4-yl)-4-(2-((3-morpholinophenyl)amino)-2-oxoethyl)pyrrolidine-2-carboxylic acid] |  | > 20 µM | 1000 to 5000 nM | 100 to 200 nM | C (C represents <1 cm/ss×10^−6) |
| Cc1nc(N2C[C@@H](CC(=O)Nc3cccc(N4CCC(O)CC4)c3)C[C@H]2C(=O)O)c2oc3ccccc3c2n1 [Compound 58, (2S,4R)-4-(2-((3-(4-hydroxypiperidin-1-yl)phenyl)amino)-2-oxoethyl)-1-(2-methylbenzofuro[3,2-d]pyrimidin-4-yl)pyrrolidine-2-carboxylic acid] |  | > 20 µM | 1000 to 5000 nM | 200 to 1000 nM | C (C represents <1 cm/ss×10^−6) |
